# The source made the active and inactive calls.
# Key:
# Beta-lactamase [1] = biological target: Beta-lactamase (Salmonella choleraesuis (strain SC-B67), UniProt Q5J463); assay: Epi-absorbance-based counterscreen for selective VIM-2 inhibitors: dose response biochemical high throughput screening assay to identify inhibitors of TEM-1 serine-beta-lactamase.
# Beta-lactamase [2] = biological target: T1, Beta-lactamase (Pseudomonas aeruginosa, UniProt Q79MP6); assay: IMP-1 metallo-beta-lactamase inhibitors, dose response, selectivity assay for VIM-2 inhibitor project, biochemical, epi-absorbance (AID 1920)
# T1 sequence (Q79MP6 whole entry): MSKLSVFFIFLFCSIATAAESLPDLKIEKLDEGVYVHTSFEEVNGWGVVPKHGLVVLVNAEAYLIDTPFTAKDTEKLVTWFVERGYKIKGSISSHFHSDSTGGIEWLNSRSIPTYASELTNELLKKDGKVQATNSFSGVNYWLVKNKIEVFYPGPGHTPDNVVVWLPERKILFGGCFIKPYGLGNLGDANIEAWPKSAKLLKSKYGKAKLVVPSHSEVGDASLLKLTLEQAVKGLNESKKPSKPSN
# Beta-lactamase [3] = biological target: T1, Beta-lactamase; assay: […] counterscreen for selective VIM-2 inhibitors: dose response biochemical high throughput screening assay to identify inhibitors of IMP-1 metallo-beta-lactamase.
# Trypsin = Trypsin (Sus scrofa, UniProt P00761); assay: porcine trypsin inhibitors, dose response, selectivity assay for Rce1 protease inhibitor project, biochemical, quenched peptide fluorescence, cherry-pick (AID 488789)
# Trypsin, sequence (P00761 whole entry): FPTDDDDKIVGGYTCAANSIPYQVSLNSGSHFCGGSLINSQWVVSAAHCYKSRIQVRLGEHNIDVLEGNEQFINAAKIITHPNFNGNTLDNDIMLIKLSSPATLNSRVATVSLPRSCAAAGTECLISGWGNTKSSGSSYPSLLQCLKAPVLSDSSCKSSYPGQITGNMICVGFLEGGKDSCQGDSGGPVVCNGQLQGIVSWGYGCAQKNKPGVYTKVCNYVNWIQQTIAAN
# A549 = assay: A549 cell toxicity, dose response, cytotoxicity control, plate reader, cherry-pick samples (AID 687028); assay type: functional, cell-based; settings: Homo sapiens
# [4] = biological target: T2, Short transient receptor potential channel 4 (Mus musculus, UniProt Q9QUQ5); assay: mouse TRPC4 channel inhibitors, dose response, cell-based, HEK293 TRPC4/mu-opioid, Fluo-4 calcium (AID 434942); assay type: functional;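 note: potency of inhibitors blocking the TRPC4 calcium response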
# T2 sequence (Q9QUQ5 whole entry): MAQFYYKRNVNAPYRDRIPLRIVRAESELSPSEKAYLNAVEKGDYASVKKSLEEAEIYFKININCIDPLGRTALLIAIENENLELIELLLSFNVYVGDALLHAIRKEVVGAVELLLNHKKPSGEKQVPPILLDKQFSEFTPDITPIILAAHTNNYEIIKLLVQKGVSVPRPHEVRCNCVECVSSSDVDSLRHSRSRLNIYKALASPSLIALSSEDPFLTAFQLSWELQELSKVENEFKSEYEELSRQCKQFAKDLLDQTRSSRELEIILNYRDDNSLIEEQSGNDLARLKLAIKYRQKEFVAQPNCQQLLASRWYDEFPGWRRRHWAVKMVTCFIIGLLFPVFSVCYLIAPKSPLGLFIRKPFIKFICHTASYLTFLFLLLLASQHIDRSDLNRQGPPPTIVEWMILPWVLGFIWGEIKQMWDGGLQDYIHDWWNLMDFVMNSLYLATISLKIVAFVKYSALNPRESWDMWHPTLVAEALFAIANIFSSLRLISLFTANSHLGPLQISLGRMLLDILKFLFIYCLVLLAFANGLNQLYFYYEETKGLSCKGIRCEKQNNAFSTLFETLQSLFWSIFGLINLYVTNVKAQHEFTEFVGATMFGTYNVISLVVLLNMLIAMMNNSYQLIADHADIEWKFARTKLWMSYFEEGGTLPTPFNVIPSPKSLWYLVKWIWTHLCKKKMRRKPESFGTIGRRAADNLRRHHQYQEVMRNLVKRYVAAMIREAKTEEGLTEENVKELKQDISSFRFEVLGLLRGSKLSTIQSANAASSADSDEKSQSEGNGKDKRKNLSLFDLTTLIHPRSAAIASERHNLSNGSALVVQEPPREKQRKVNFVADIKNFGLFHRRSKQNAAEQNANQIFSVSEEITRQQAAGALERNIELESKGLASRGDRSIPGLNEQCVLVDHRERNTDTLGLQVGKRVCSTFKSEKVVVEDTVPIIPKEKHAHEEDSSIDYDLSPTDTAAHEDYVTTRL
# [5] = biological target: SWI/SNF-related matrix-associated actin-dependent regulator of chromatin subfamily A member 2 (Homo sapiens, UniProt P51531); assay: Luminescence-based cell-based high throughput dose response assay to identify activators of the function of SWI/SNF related, matrix associated, actin dependent regulator of chromatin, subfamily a, member 2 (SMARCA2, BRM).; assay type: functional
# SWI/SNF-related matrix-associated actin-dependent regulator of chromatin subfamily A member 2, sequence (P51531 whole entry): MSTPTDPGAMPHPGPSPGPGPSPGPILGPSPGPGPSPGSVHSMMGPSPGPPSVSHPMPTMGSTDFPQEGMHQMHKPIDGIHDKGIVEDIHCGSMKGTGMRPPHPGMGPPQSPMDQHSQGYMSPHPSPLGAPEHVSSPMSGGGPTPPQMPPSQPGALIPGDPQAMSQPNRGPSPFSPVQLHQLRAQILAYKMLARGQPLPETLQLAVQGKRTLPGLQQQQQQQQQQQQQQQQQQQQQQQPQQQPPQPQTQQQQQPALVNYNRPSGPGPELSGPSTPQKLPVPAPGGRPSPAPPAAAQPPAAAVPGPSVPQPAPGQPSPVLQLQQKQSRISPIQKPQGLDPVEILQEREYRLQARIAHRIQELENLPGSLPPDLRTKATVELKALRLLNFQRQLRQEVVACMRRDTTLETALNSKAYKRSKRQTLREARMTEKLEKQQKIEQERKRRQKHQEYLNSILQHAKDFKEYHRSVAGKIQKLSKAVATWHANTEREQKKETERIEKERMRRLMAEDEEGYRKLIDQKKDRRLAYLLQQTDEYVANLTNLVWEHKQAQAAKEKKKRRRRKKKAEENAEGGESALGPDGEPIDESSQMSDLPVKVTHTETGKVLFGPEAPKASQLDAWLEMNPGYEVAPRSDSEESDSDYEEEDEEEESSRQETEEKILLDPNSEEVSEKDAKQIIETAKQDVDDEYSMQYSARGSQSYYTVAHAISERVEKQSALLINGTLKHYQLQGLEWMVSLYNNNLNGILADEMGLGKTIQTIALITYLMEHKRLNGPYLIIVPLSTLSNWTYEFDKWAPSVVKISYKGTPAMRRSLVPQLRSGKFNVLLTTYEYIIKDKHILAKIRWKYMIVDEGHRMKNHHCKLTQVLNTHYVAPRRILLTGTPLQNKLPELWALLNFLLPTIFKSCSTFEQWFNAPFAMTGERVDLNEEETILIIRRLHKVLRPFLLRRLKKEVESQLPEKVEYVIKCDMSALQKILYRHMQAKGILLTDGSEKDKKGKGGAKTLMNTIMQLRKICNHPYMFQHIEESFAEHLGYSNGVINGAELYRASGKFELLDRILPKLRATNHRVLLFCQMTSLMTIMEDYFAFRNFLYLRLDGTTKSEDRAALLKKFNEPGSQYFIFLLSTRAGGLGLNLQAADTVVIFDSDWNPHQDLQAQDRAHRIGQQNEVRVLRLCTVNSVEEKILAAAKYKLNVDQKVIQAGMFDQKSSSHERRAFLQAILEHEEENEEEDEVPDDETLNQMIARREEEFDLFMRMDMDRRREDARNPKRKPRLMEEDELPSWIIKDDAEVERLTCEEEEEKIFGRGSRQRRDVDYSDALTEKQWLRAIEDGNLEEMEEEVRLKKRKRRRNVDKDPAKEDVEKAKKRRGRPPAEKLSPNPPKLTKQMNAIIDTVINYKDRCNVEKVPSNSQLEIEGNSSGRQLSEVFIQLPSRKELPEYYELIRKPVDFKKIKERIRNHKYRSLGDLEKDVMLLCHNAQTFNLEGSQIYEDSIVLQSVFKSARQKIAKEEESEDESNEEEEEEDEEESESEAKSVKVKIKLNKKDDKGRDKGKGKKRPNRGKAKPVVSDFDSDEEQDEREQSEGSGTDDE
# [6] = Counterscreen for activators of the function of SWI/SNF related, matrix associated, actin dependent regulator of chromatin, subfamily a, member 2 (SMARCA2, BRM): Luminescence-based cell-based high throughput dose response assay to identify non-selective compounds using the VP16 reporter assay.; assay type: functional
# [7] = biological target: T3, DNA repair protein RAD52 homolog (Homo sapiens, UniProt P43351); assay type: functional, biochemical
# T3 sequence (P43351 whole entry): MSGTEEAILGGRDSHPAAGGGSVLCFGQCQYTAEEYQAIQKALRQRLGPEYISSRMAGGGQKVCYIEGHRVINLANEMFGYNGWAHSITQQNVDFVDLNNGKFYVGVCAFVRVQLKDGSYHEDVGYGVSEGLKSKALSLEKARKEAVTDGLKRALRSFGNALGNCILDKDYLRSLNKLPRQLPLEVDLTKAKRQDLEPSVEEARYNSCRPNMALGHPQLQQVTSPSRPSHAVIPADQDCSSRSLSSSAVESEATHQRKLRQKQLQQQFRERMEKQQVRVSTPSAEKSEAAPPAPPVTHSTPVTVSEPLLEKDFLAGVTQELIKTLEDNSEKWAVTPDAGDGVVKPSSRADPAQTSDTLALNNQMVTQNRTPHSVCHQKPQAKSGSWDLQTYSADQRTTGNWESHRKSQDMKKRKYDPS
# [8] = Luminescence Cell-Based Dose Confirmation HTS to Identify Activators of 5'UTR Stem-Loop Driven Alpha-Synuclein mRNA Translation in H4 Neuroglioblastoma Cells. [Related pubchem assays: 1829 (Project Summary), 1814 (Primary HTS)]; assay type: functional
# [9] = Luminescence Cell-Based Dose Response HTS to Identify Activators of Luciferase Translation or Activity in H4 […] Cells. [Related pubchem assays: 1829 (Project Summary), 1814 (Primary HTS)]; assay type: functional
# [10] = test system: Streptococcus sp. 'group A'; assay: growth inhibition of control SK(-) GAS strain, dose response, counter-screen for streptokinase expression inhibitor project, luminescence, kanamycin, BacTiterGlo, confirmation (AID 1900); assay type: functional, organism-based
# H4 = assay: Luminescence Cell-Based Dose Response HTS to Identify Activators of 5'UTR Stem-Loop Driven Prion Protein mRNA Translation in H4 Neuroglioblastoma Cells. [Related pubchem assays: 1829 (Project Summary), 1814 (Primary HTS)]; assay type: functional; settings: Homo sapiens
# [11] = biological target: Induced myeloid leukemia cell differentiation protein Mcl-1 (Homo sapiens, UniProt Q07820); assay type: functional
# Induced myeloid leukemia cell differentiation protein Mcl-1, sequence (Q07820 whole entry): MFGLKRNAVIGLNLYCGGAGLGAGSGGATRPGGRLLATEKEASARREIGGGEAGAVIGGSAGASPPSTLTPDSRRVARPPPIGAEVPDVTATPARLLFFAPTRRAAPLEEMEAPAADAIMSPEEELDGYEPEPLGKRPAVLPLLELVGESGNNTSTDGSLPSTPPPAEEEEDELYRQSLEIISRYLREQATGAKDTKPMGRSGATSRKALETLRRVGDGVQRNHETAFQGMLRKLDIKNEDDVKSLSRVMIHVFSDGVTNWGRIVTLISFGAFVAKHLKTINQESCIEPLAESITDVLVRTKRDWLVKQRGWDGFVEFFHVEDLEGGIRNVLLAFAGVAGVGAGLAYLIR
# Streptococcus = assay: Group A Streptococcus viability loss, dose response, counter-screen for streptokinase expression inhibitor project, luminescence, BacTiterGlo (AID 1915); assay type: functional, organism-based;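 note: potency for reduction of bacterial viability or growth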
# [12] = biological target: Eukaryotic translation initiation factor 4E (Mus musculus, UniProt P63073); assay: eIF4E–eIF4G protein interaction inhibitors, dose response, biochemical, TR-FRET (AID 855); assay type: functional;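 note: potency for disrupting eIF4E binding to eIF4GI seen as loss of FRET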
# Eukaryotic translation initiation factor 4E, sequence (P63073 whole entry): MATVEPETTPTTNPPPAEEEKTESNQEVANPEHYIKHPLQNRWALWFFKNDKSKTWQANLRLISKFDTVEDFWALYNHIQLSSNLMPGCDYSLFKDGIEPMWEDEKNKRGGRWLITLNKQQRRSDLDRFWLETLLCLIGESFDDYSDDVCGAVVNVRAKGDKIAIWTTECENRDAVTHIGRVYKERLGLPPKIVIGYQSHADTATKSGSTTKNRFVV
# [13] = biological target: Matrix metalloproteinase-14 (Homo sapiens, UniProt P50281); assay: Dose Response confirmation of uHTS hits for a small molecule inhibitors of MT1-MMP activation in a fluorescence assay set 2.; assay type: functional
# Beta-lactamase (Salmonella choleraesuis (strain SC-B67), UniProt Q5J463), sequence (Q5J463 whole entry): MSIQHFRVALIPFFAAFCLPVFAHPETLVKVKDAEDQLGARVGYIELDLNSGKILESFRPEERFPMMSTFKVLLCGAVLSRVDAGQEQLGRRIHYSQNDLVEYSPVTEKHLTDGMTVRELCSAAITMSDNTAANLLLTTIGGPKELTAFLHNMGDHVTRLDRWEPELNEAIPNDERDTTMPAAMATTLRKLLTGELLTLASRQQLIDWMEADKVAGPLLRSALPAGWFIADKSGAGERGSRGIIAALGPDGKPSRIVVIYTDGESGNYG
smiles,measurement,setting,value
CCCCn1c(S)nnc1-c1sccc1C,IC50,Beta-lactamase [1],> 59.6 µM (inactive)
same,IC50,Beta-lactamase [2],> 59.6 µM (inactive)
same,IC50,Beta-lactamase [3],> 59.6 µM (inactive)
same,AC50,Trypsin,10 µM (active)
COc1ccc(-c2ccc3c(c2)[C@@H]2[C@@H](CCN2C(=O)C2CCOCC2)[C@@H](CO)N3C)cc1,AC50,A549,27.8 µM (active)
COc1nc(NC(=N)N)nc2ccc(C)cc12,EC50,[4],5.31 µM (active)
same,EC50,[5],> 3.38 µM (active)
same,EC50,[6],> 91.2 µM (inactive)
same,AC50,[7],9.39 µM (active)
COc1ccc2nc(N3C(=O)C(c4c(O)[nH]c5ccccc45)=NC3=S)sc2c1,EC50,[8],> 120 µM (not active)
same,EC50,[9],34.5 µM (active)
same,EC50,[10],0.744 µM (active)
same,EC50,H4,101 µM (active)
same,IC50,[11],> 54 µM (active)
same,EC50,Streptococcus,2.41 µM (active)
same,IC50,[12],> 64 µM (inactive)
same,IC50,[13],37.6 µM (inactive)
